System: tumour spheroids from primary ovarian cancer tissue
Assay: Ovarian cancer spheroid model, ATP assay (CellTiter-Glo) of cell viability / metabolic activity
Method: Fresh primary ovarian cancer samples were obtained after informed consent of the individual patient was given. Patients were recruited following clinical diagnosis, and prior to chemotherapy commencing.
Heterotypic tumour spheroids were prepared from the individual primary ovarian cancer tissue. The tumour samples were mechanically and enzymatically digested using an enzyme cocktail (Roche, Penzberg Germany), cell viability determined using the trypan-blue exclusion test, and spheroids seeded at a cell density of 50,000 using a modified liquid overlay method. After 48 h in cell culture under standard conditions, successful spheroid formation was documented photographically before starting treatment.
Each experiment was repeated six times, and both untreated (medium) control and two positive controls (carboplatin+paclitaxel and vorinostat) were used under the same culture conditions. Treatment efficacy, i.e. treatment-induced reduction of the cellular metabolic activity (cell viability) was analyzed using a standard ATP assay.
Once the feasibility study was completed, tumour spheroids consisting of 50,000 cells were prepared from the individual primary ovarian cancer tissue as described above. After 48 h, spheroid formation was documented photographically before starting treatment. […] Treatment efficacy was evaluated using a standard ATP assay, details of which are provided below.
ATP assay test from Promega: CellTiter-Glo®. The CellTiter-Glo® Luminescent Cell Viability Assay is a homogeneous method to determine the number of viable cells in culture based on quantitation of the ATP present, which signals the presence of metabolically active cells. […] The homogeneous assay procedure involves adding a single reagent (CellTiter-Glo® Reagent) directly to cells cultured in serum-supplemented medium.
The homogeneous “add-mix-measure” format results in cell lysis and generation of a luminescent signal proportional to the amount of ATP present.

| SMILES | reduction in cell viability to (FIG. 1, patient #5284, 5 μM, after 48 h) [%] | reduction in cell viability (compared to the untreated control) (FIG. 1, patient #5284, 7.5 μM) [%] | reduction in cell viability (compared to the untreated control) (FIG. 1, patient #5284, 10 μM) [%] | cell viability compared to control untreated spheroids (FIG. 1, patient #5284, 2.5-10 μM) | reduction in cell viability compared with carboplatin+paclitaxel (FIG. 1, patient #5284, 5, 7.5 and 10 μM, after 48 h) | reduction in cell viability compared with carboplatin+paclitaxel (FIG. 1, patient #5284, 5, 7.5 and 10 μM, after 72 h) | reduction in cell viability compared with vorinostat (FIG. 1, patient #5284, 5, 7.5 and 10 μM, all time points) | time dependence of cell viability (FIG. 1, patient #5284, higher concentrations) | time dependence of cell viability (FIG. 1, patient #5284, lower concentrations, 48 h to 96 h) | efficacy compared with positive controls (FIG. 2, patient #5285, feasibility study) | reduction in cell viability, combination therapy (FIG. 4, n=8, EDO-S101 5 μM, carboplatin 110 μM, paclitaxel 1.79 μM, 72 h) | effect of adding EDO-S101 to other treatments (FIG. 6, patient #5295, 72 h) | efficacy compared with carboplatin (FIG. 6, patient #5295, 72 h) | metabolic activity (ATP assay) (FIG. 6, patient #5295, 72 h) | effect of adding EDO-S101 to other treatments (FIG. 7, patient #5296, 72 h) | metabolic activity (ATP assay) (FIG. 7, patient #5296, 72 h) | metabolic activity (ATP assay) (FIG. 8, patient #5310, 72 h, samples from ovary and omentum) | metabolic activity (ATP assay) (FIG. 9, patient #5311, 72 h) | metabolic activity (ATP assay) (FIG. 10, patient #5329, 72 h) |
| --- | --- | --- | --- | --- | --- | --- | --- | --- | --- | --- | --- | --- | --- | --- | --- | --- | --- | --- | --- |
| Cn1c(CCCCCCC(=O)NO)nc2cc(N(CCCl)CCCl)ccc21 [EDO-S101, 7-(5-(bis(2-chloroethyl)amino)-1-methyl-1H-benzo[d]imidazol-2-yl)-N-hydroxyheptanamide] | 50 | ~80 | ~80 | A reduction in cell viability was observed | greater than that in spheroids treated with carboplatin+paclitaxel after 48 h | comparable after 72 h | greater than that in spheroids treated with vorinostat at all time points | did not decrease in a time dependent manner | decreased in a time dependent manner | better than both carboplatin+paclitaxel or vorinostat | median reduction in cell viability comparable to carboplatin+paclitaxel, but with enhanced average potency across the experimental group | further reduced metabolic activity when used in combination with carboplatin, paclitaxel and carboplatin+paclitaxel | comparable to that of carboplatin | shows a reduction in metabolic activity compared to the negative control | enhanced efficacy when in combination with carboplatin, paclitaxel and carboplatin+paclitaxel | enhanced reduction in metabolic activity compared to vorinostat, carboplatin or paclitaxel | effective in treating ovarian cancer from the omentum | comparable efficacy to that observed in spheroids treated with vorinostat | comparable or improved activity compared to vorinostat and carboplatin as monotherapies |
| CC(=O)O[C@H]1C(=O)[C@@]2(C)[C@H]([C@H](OC(=O)c3ccccc3)[C@]3(O)C[C@H](OC(=O)[C@H](O)[C@@H](NC(=O)c4ccccc4)c4ccccc4)C(C)=C1C3(C)C)[C@]1(OC(C)=O)CO[C@@H]1C[C@@H]2O [paclitaxel, reference compound] |  |  |  |  |  |  |  |  |  |  |  |  |  | negligible efficacy |  |  |  |  |  |
| O=C(CCCCCCC(=O)Nc1ccccc1)NO [vorinostat, reference compound] |  |  |  |  |  |  |  |  |  |  |  |  |  | negligible efficacy |  |  |  |  |  |
